What was measured:
[1] = test system: OVCAR-3/luc orthotopic ovarian tumor; assay: H&E staining of ovarian tumor sections; assay type: in vivo, nude mice; conditions: after 20 days of treatment
Description: (§1) Tumors and normal ovaries from mice with different treatments were collected for histological assay after mice were sacrificed. […] paraffin tissue sections were prepared for analysis. Morphology of tumors and normal ovaries were examined by haematoxylin and eosin (H&E) staining. TUNEL staining were used for the live/dead assay in the tissue sections using DeadEnd™ Fluorometric TUNEL System (Promega, USA). Tissue sections were examined at magnification of 400× using fluorescent microscope (Zeiss, Germany).
(§2) The therapeutic effect of the stimuli-responsive multifunctional nanoparticle of the present invention on ovarian cancer cells was further analyzed histologically after the mice were treated differently as mentioned above for 20 days and sacrificed.

[2] = test system: OVCAR-3/luc orthotopic ovarian tumor; assay: Anti-tumor effect in orthotopic ovarian tumor xenograft model, ROI size by bioluminescence imaging; assay type: in vivo, nude mice; conditions: day 20, dose equivalent to 5 mg/kg of DOX via tail vein
Excerpt: The orthotopic human ovarian cancer xenograft model was established using 6-8 week old female athymic nude mice purchased from National Laboratory Animal Center (Taipei, Taiwan). All mouse procedures were approved by the Institutional Animal Care and Use Committee (IACUC) of National Tsing Hua University. Prior to surgery, the mouse was laid dorsal side up under anesthetic. The incision was made left or right of the midline and directly above the ovarian fat pad. The ovarian fat pad was gently pulled out and rested onto a sterile saline soaked gauze pad. Under a dissecting microscope, the ovary was allowed for the insertion of a 30 gauge needle into the bursa. Suspension (1×10^6) of OVCAR-3/luc cells in a maximum volume of […] was slowly injected between the bursa and the ovary. […]
Growth of tumor was monitored by bioluminescence imaging (BLI) using in vivo imaging system (Caliper Life Sciences). […] Prior to being monitored, the tumor-implanted mice were injected intraperitoneally with 150 mg/kg of D-luciferin substrate. The Regions of Interest (ROIs) in tumor area were selected and used for quantification of tumor size by the software provided by the Caliper Life Sciences. Volumes or sizes of ROIs were calculated as L×W^2/2, where L was the largest and W was the smallest diameter of each ROI. […]

OVCAR-3 cells [3] = assay: Cellular uptake by fluorescence microscopy in OVCAR-3 cells; assay type: cell-based, human; conditions: 4 hours, equivalent to 50 mg/mL DOX
Description: The cellular uptake of the stimuli-responsive multifunctional nanoparticle of the present invention and the intracellular drug delivery were investigated by fluorescence microscopy. Human ovarian cancer cells OVCAR-3 and mouse embryonic fibroblasts NIH3T3 were cultured to 70-80% confluence and seeded onto 4-well chamber slides (BD Falcon, USA) at a density of 1×10^5 cells/well. After incubation at 37° C. for 24 hours, DOX.HCl, the HA-cys-ADOX nanoparticles (referred to as HA NPs), or the LHRH-HA-cys-ADOX nanoparticles (referred to as LHRH NPs) dissolved in DMEM at concentrations equivalent to 50 mg/mL DOX was added to the cells for a 2-hour incubation at 37° C. Cells treated with DMEM were the negative control group (NC). Next, fluorescent dyes Lysotracker Green and DAPI in DMEM were sequentially added to the abovementioned cells to stain endosome/lysosome for 2 hours and nuclei for 1 hour. After all the reagents were removed, the cells were washed with PBS (pH 7.4) three times, followed by addition of a mounting medium to fix the cells and prevent fluorescence fading. Cells were examined using a fluorescent microscope (Zeiss, Germany).

NIH3T3 cells = assay: Cell viability (MTS assay) in NIH3T3 cells; assay type: cell-based, mouse; conditions: NIH3T3, 48 hours, various concentrations
Description: (§3) The cytotoxicity and anticancer effect of the stimuli-responsive multifunctional nanoparticle of the present invention was evaluated by cell viability assay in NIH3T3 and OVCAR-3 cells. The cells were seeded in a 96-well plate at a density of 5×10^3 cells/well and incubated at 37° C. for 24 hours. Next, DOX.HCl, the HA-cys-ADOX nanoparticles, or the LHRH-HA-cys-ADOX nanoparticles dissolved in DMEM at predetermined concentrations equivalent to DOX was added to the cells. Cells treated with DMEM were the negative control group. After incubation at 37° C. for 48 hours, the cells were washed with PBS (pH 7.4). Cell viability was measured by MTS assay (CellTiter 96® AQueous One Solution Cell Proliferation Assay (Promega, USA)) according to the manufacturer's instructions and calculated as the ratio of light absorbance at […] of the experimental group to that of the negative control group.

[4] = test system: OVCAR-3/luc orthotopic ovarian tumor; assay: TUNEL staining of ovarian tumor sections; assay type: in vivo, nude mice; conditions: after 20 days of treatment
Description: as §1, §2

OVCAR-3 cells [5] = assay: Cell viability (MTS assay) in OVCAR-3 cells; assay type: cell-based, human; conditions: OVCAR-3, 48 hours, various concentrations
Description: as §3

COc1cccc2c1C(=O)c1c(O)c3c(c(O)c1C2=O)C[C@@](O)(C(=O)CO)C[C@@H]3O[C@H]1C[C@H](N)[C@H](O)[C@H](C)O1.Cl [free DOX, doxorubicin hydrochloride]
tumor cell morphology (H&E staining) [1]: cell proliferation with dense nuclei in random pattern
ROI size relative to that of the LHRH-NPs/Cy5.5-treated mice [2]: 4.3 fold
difference in intensity of intracellular DOX fluorescence between OVCAR-3 and NIH3T3 cells (OVCAR-3 cells [3]): no difference
cytotoxicity (NIH3T3 cells): dose-dependent
TUNEL fluorescence signal (apoptotic cells) in tumors [4]: no significant TUNEL fluorescence signal
cytotoxicity / anticancer effect (OVCAR-3 cells [5]): dose-dependent

From patent publication US10117837B2, “Methods of preparing stimuli-responsive multifunctional nanoparticles” (priority 2017, dated 2018)
